Test results taken from PubChem BioAssay AID270 (DTP/NCI, 2004).
Values joined by “and” are separate entries in the source; they are usually repeats but may differ in a detail not shown here. Identical values can stand only once. Results filed as inconclusive are left out.

Tested on: BDF1 mice, s.c. Lewis lung carcinoma, T/C %
Assay: NCI In Vivo Anticancer Drug Screen. Data for tumor model Lewis Lung Carcinoma (subcutaneous) in B6D2F1 (BDF1) mice
Method in brief: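 Transplanted tumors grown in mice; compound vs vehicle dosing; endpoint survival or tumor size; ratio T/C.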

[1] = endpoint: median survival time, dose: 4.0 mg/kg/injection, schedule: Q01DX009 (ip), vehicle: Klucel (hydroxypropylcellulose) (HPC), higher = longer survival
[2] = endpoint: median survival time, dose: 6.0 mg/kg/injection, schedule: Q01DX009 (ip), vehicle: Klucel (hydroxypropylcellulose) (HPC), higher = longer survival

Cn1c(O)c(N=NC(N)=S)c2ccccc21
T/C (endpoint: mean tumor weight, dose: 15.0 mg/kg/injection, schedule: Q01DX011 (ip), vehicle: carboxymethylcellulose (CMC), higher = larger tumour): 70 % of control
T/C (endpoint: mean tumor weight, dose: 120.0 mg/kg/injection, schedule: Q01DX011 (ip), vehicle: carboxymethylcellulose (CMC), higher = larger tumour): 77 % of control and 82 % of control
T/C (endpoint: mean tumor weight, dose: 360.0 mg/kg/injection, schedule: Q01DX011 (ip), vehicle: carboxymethylcellulose (CMC), higher = larger tumour): 57 % of control
T/C (endpoint: mean tumor weight, dose: 500.0 mg/kg/injection, schedule: Q01DX011 (ip), vehicle: carboxymethylcellulose (CMC), higher = larger tumour): 52 % of control

c1ccc([As+](c2ccccc2)(c2ccccc2)c2ccccc2)cc1
T/C (endpoint: median survival time, dose: 1.87 mg/kg/injection, schedule: Q01DX009 (ip), vehicle: Klucel (hydroxypropylcellulose) (HPC), higher = longer survival): 97 % of control
T/C (endpoint: median survival time, dose: 3.75 mg/kg/injection, schedule: Q01DX009 (ip), vehicle: Klucel (hydroxypropylcellulose) (HPC), higher = longer survival): 95 % of control

Cc1ccc(S(=O)(=O)[O][Pb]([CH3])([CH3])[CH3])cc1
T/C (endpoint: median survival time, dose: 0.18 mg/kg/injection, schedule: Q01DX009 (ip), vehicle: saline, higher = longer survival): 98 % of control and 122 % of control
T/C (endpoint: median survival time, dose: 0.37 mg/kg/injection, schedule: Q01DX009 (ip), vehicle: saline, higher = longer survival): 108 % of control
T/C (endpoint: median survival time, dose: 0.75 mg/kg/injection, schedule: Q01DX009 (ip), vehicle: saline, higher = longer survival): 116 % of control
T/C (endpoint: median survival time, dose: 1.5 mg/kg/injection, schedule: Q01DX009 (ip), vehicle: saline, higher = longer survival): 109 % of control

CC(=O)NNC(=O)c1ccccc1CO
T/C (endpoint: median survival time, dose: 25.0 mg/kg/injection, schedule: Q01DX009 (ip), vehicle: saline with Tween-80, higher = longer survival): 95 % of control
T/C (endpoint: median survival time, dose: 50.0 mg/kg/injection, schedule: Q01DX009 (ip), vehicle: saline with Tween-80, higher = longer survival): 95 % of control
T/C (endpoint: median survival time, dose: 100.0 mg/kg/injection, schedule: Q01DX009 (ip), vehicle: saline with Tween-80, higher = longer survival): 98 % of control
T/C (endpoint: median survival time, dose: 200.0 mg/kg/injection, schedule: Q01DX009 (ip), vehicle: saline with Tween-80, higher = longer survival): 93 % of control

Nc1ncnc2c1ccn2C1OC(CO)C(O)C1O (stereo unspecified)
T/C (endpoint: mean tumor weight, dose: 0.32 mg/kg/injection, schedule: Q01DX011 (ip), vehicle: saline, higher = larger tumour): 77 % of control
T/C (endpoint: mean tumor weight, dose: 0.63 mg/kg/injection, schedule: Q01DX011 (ip), vehicle: saline, higher = larger tumour): 60 % of control
T/C (endpoint: mean tumor weight, dose: 1.25 mg/kg/injection, schedule: Q01DX011 (ip), vehicle: saline, higher = larger tumour): 84 % of control
T/C (endpoint: median survival time, dose: 0.25 mg/kg/injection, schedule: Q01DX011 (ip), vehicle: other, higher = longer survival): 98 % of control
T/C (endpoint: median survival time, dose: 0.5 mg/kg/injection, schedule: Q01DX011 (ip), vehicle: other, higher = longer survival): 89 % of control
T/C (endpoint: median survival time, dose: 1.0 mg/kg/injection, schedule: Q01DX011 (ip), vehicle: other, higher = longer survival): 110 % of control
T/C (endpoint: median survival time, dose: 2.0 mg/kg/injection, schedule: Q01DX011 (ip), vehicle: other, higher = longer survival): 101 % of control

O=C(O)C(=O)O.[U]
T/C (endpoint: mean tumor weight, dose: 5.0 mg/kg/injection, schedule: Q01DX011 (ip), vehicle: carboxymethylcellulose (CMC), higher = larger tumour): 37 % of control
T/C (endpoint: mean tumor weight, dose: 10.0 mg/kg/injection, schedule: Q01DX011 (ip), vehicle: carboxymethylcellulose (CMC), higher = larger tumour): 55 % of control and 78 % of control
T/C (endpoint: mean tumor weight, dose: 10.0 mg/kg/injection, schedule: Q01DX011 (ip), vehicle: saline, higher = larger tumour): 42 % of control
T/C (endpoint: mean tumor weight, dose: 20.0 mg/kg/injection, schedule: Q01DX011 (ip), vehicle: saline, higher = larger tumour): 27 % of control
T/C [1]: 103 % of control
T/C (endpoint: median survival time, dose: 16.0 mg/kg/injection, schedule: Q01DX009 (ip), vehicle: Klucel (hydroxypropylcellulose) (HPC), higher = longer survival): 101 % of control

CC1CCC[N-]C1.CC1CCC[N-]C1.CC1CCC[N-]C1.CC1CCC[N-]C1.[Cl][Rh][Cl] (stereo unspecified)
T/C (endpoint: median survival time, dose: 3.0 mg/kg/injection, schedule: Q01DX009 (ip), vehicle: Klucel (hydroxypropylcellulose) (HPC), higher = longer survival): 102 % of control
T/C [2]: 91 % of control

CN[C@@H](C)[C@@H](O)c1ccccc1
T/C (endpoint: mean tumor weight, dose: 25.0 mg/kg/injection, schedule: Q01DX011 (ip), vehicle: carboxymethylcellulose (CMC), higher = larger tumour): 123 % of control
T/C (endpoint: mean tumor weight, dose: 100.0 mg/kg/injection, schedule: Q01DX011 (ip), vehicle: carboxymethylcellulose (CMC), higher = larger tumour): 85 % of control
T/C (endpoint: mean tumor weight, dose: 200.0 mg/kg/injection, schedule: Q01DX011 (ip), vehicle: carboxymethylcellulose (CMC), higher = larger tumour): 72 % of control

CC(=O)O[C@H]1C(=O)[C@@]2(C)[C@H]([C@H](OC(=O)c3ccccc3)[C@]3(O)C[C@H](OC(=O)[C@H](O)[C@@H](NC(=O)c4ccccc4)c4ccccc4)C(C)=C1C3(C)C)[C@]1(OC(C)=O)CO[C@@H]1C[C@@H]2O
T/C [1]: 112 % of control
T/C [2]: 109 % of control
T/C (endpoint: median survival time, dose: 11.0 mg/kg/injection, schedule: Q04DX003 (ip), vehicle: Klucel (hydroxypropylcellulose) (HPC), higher = longer survival): 94 % of control
T/C (endpoint: median survival time, dose: 13.0 mg/kg/injection, schedule: Q01DX001 (ip), vehicle: Klucel (hydroxypropylcellulose) (HPC), higher = longer survival): 107 % of control
T/C (endpoint: median survival time, dose: 16.0 mg/kg/injection, schedule: Q04DX003 (ip), vehicle: Klucel (hydroxypropylcellulose) (HPC), higher = longer survival): 109 % of control
T/C (endpoint: median survival time, dose: 20.0 mg/kg/injection, schedule: Q01DX001 (ip), vehicle: Klucel (hydroxypropylcellulose) (HPC), higher = longer survival): 99 % of control
T/C (endpoint: median survival time, dose: 30.0 mg/kg/injection, schedule: Q01DX001 (ip), vehicle: Klucel (hydroxypropylcellulose) (HPC), higher = longer survival): 101 % of control

O=C1C=CC(=O)c2c(Cl)ccc(O)c21
T/C (endpoint: median survival time, dose: 0.63 mg/kg/injection, schedule: Q01DX009 (ip), vehicle: Klucel (hydroxypropylcellulose) (HPC), higher = longer survival): 100 % of control
T/C (endpoint: median survival time, dose: 1.25 mg/kg/injection, schedule: Q01DX009 (ip), vehicle: Klucel (hydroxypropylcellulose) (HPC), higher = longer survival): 104 % of control
T/C (endpoint: median survival time, dose: 2.5 mg/kg/injection, schedule: Q01DX009 (ip), vehicle: Klucel (hydroxypropylcellulose) (HPC), higher = longer survival): 102 % of control
T/C (endpoint: median survival time, dose: 5.0 mg/kg/injection, schedule: Q01DX009 (ip), vehicle: Klucel (hydroxypropylcellulose) (HPC), higher = longer survival): 98 % of control

NC(C/[N+]([O-])=N/O)C(=O)O (stereo unspecified)
T/C (endpoint: median survival time, dose: 8.78 mg/kg/injection, schedule: Q01DX010 (ip), vehicle: alkali diluted with saline, higher = longer survival): 103 % of control and 105 % of control
T/C (endpoint: median survival time, dose: 13.2 mg/kg/injection, schedule: Q01DX010 (ip), vehicle: alkali diluted with saline, higher = longer survival): 120 % of control and 121 % of control
T/C (endpoint: median survival time, dose: 19.8 mg/kg/injection, schedule: Q01DX010 (ip), vehicle: alkali diluted with saline, higher = longer survival): 102 % of control
T/C (endpoint: median survival time, dose: 29.6 mg/kg/injection, schedule: Q01DX010 (ip), vehicle: alkali diluted with saline, higher = longer survival): 105 % of control
T/C (endpoint: median survival time, dose: 44.4 mg/kg/injection, schedule: Q01DX010 (ip), vehicle: alkali diluted with saline, higher = longer survival): 114 % of control and 116 % of control
T/C (endpoint: median survival time, dose: 66.7 mg/kg/injection, schedule: Q01DX010 (ip), vehicle: alkali diluted with saline, higher = longer survival): 117 % of control
T/C (endpoint: median survival time, dose: 100.0 mg/kg/injection, schedule: Q01DX010 (ip), vehicle: alkali diluted with saline, higher = longer survival): 98 % of control
T/C (endpoint: median survival time, dose: 1000.0 mg/kg/injection, schedule: Q01DX001 (ip), vehicle: saline, higher = longer survival): 96 % of control

CC[C@@H](C(=O)[C@@H](C)[C@@H](O)[C@H](C)CCc1ccc(C)c(O)c1C(=O)O)[C@H]1O[C@](CC)([C@H]2CC[C@](O)(CC)[C@H](C)O2)C[C@@H]1C
T/C (endpoint: median survival time, dose: 0.78 mg/kg/injection, schedule: Q01DX009 (ip), vehicle: Klucel (hydroxypropylcellulose) (HPC), higher = longer survival): 113 % of control
T/C (endpoint: median survival time, dose: 1.56 mg/kg/injection, schedule: Q01DX009 (ip), vehicle: Klucel (hydroxypropylcellulose) (HPC), higher = longer survival): 111 % of control
T/C (endpoint: median survival time, dose: 3.12 mg/kg/injection, schedule: Q01DX009 (ip), vehicle: Klucel (hydroxypropylcellulose) (HPC), higher = longer survival): 93 % of control
T/C (endpoint: median survival time, dose: 6.25 mg/kg/injection, schedule: Q01DX009 (ip), vehicle: Klucel (hydroxypropylcellulose) (HPC), higher = longer survival): 96 % of control
T/C (endpoint: median survival time, dose: 25.0 mg/kg/injection, schedule: Q01DX009 (ip), vehicle: Klucel (hydroxypropylcellulose) (HPC), higher = longer survival): 96 % of control

O=c1[nH]c2cc(Cl)c(Cl)cc2o1
T/C (endpoint: mean tumor weight, dose: 22.0 mg/kg/injection, schedule: Q01DX011 (ip), vehicle: carboxymethylcellulose (CMC), higher = larger tumour): 79 % of control
T/C (endpoint: mean tumor weight, dose: 35.0 mg/kg/injection, schedule: Q01DX011 (ip), vehicle: carboxymethylcellulose (CMC), higher = larger tumour): 93 % of control
T/C (endpoint: mean tumor weight, dose: 50.0 mg/kg/injection, schedule: Q01DX011 (ip), vehicle: carboxymethylcellulose (CMC), higher = larger tumour): 95 % of control
T/C (endpoint: mean tumor weight, dose: 75.0 mg/kg/injection, schedule: Q01DX011 (ip), vehicle: carboxymethylcellulose (CMC), higher = larger tumour): 77 % of control and 84 % of control
T/C (endpoint: mean tumor weight, dose: 115.0 mg/kg/injection, schedule: Q01DX011 (ip), vehicle: carboxymethylcellulose (CMC), higher = larger tumour): 114 % of control

COc1ccc(CC2C(=O)NC(C)C(=O)N(C)C3Cc4ccc(cc4)Oc4cc(ccc4O)CC(C(=O)NC(C)C(=O)NC(C)C(=O)N2C)N(C)C3=O)cc1 (stereo unspecified)
T/C (endpoint: median survival time, dose: 1.0 mg/kg/injection, schedule: Q01DX009 (ip), vehicle: saline, higher = longer survival): 103 % of control
T/C (endpoint: median survival time, dose: 2.0 mg/kg/injection, schedule: Q01DX009 (ip), vehicle: saline, higher = longer survival): 111 % of control

CC(=O)Nc1cc2c(cc1Br)-c1ccccc1C2O (stereo unspecified)
T/C (endpoint: mean tumor weight, dose: 24.0 mg/kg/injection, schedule: Q01DX011 (ip), vehicle: saline, higher = larger tumour): 47 % of control and 62 % of control and 69 % of control
T/C (endpoint: mean tumor weight, dose: 55.0 mg/kg/injection, schedule: Q01DX011 (ip), vehicle: saline, higher = larger tumour): 31 % of control and 52 % of control and 53 % of control
T/C (endpoint: mean tumor weight, dose: 444.0 mg/kg/injection, schedule: Q01DX011 (ip), vehicle: saline, higher = larger tumour): 26 % of control
T/C (endpoint: mean tumor weight, dose: 666.0 mg/kg/injection, schedule: Q01DX011 (ip), vehicle: saline, higher = larger tumour): 19 % of control

Oc1cc2c3c(c1)c1cc4c(cc1c[n+]3CC2)OCO4
T/C (endpoint: median survival time, dose: 3.13 mg/kg/injection, schedule: Q01DX009 (ip), vehicle: water, higher = longer survival): 109 % of control
T/C (endpoint: median survival time, dose: 6.25 mg/kg/injection, schedule: Q01DX009 (ip), vehicle: water, higher = longer survival): 96 % of control
T/C (endpoint: median survival time, dose: 12.5 mg/kg/injection, schedule: Q01DX009 (ip), vehicle: water, higher = longer survival): 122 % of control
T/C (endpoint: median survival time, dose: 25.0 mg/kg/injection, schedule: Q01DX009 (ip), vehicle: water, higher = longer survival): 96 % of control
